# Measurements as given in PubChem BioAssay AID1033 (Sanford-Burnham Center for Chemical Genomics, 2008).
# The source made the active and inactive calls. The rule behind the calls is not given here.
# Target: Chaperone protein DnaK (Escherichia coli (strain K12)) (UniProt P0A6Y8)
# Experiment: E. coli DnaK SBD ligand binding – biophysical, NMR, chaperone (AID 1033)
# Conditions: Purified DnaK SBD
# Chaperone protein DnaK (Escherichia coli (strain K12)), sequence (P0A6Y8 whole entry, looked up): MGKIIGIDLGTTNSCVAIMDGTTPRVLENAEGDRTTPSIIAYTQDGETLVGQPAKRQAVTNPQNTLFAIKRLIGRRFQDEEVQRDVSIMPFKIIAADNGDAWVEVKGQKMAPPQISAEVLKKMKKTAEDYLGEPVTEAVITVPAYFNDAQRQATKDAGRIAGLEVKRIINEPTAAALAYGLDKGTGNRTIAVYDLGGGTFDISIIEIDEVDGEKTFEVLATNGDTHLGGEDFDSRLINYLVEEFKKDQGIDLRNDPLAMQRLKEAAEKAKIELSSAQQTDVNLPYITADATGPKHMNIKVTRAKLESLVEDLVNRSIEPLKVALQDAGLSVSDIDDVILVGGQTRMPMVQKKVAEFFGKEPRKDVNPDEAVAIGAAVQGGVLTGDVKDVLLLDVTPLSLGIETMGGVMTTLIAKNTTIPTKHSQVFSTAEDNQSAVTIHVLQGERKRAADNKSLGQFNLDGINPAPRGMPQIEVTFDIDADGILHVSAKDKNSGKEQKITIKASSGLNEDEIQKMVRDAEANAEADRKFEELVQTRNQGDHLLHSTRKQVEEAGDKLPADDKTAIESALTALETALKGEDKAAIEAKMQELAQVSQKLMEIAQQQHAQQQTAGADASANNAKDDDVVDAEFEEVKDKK
row,SMILES,Kd
1,O=C(CSc1ncn[nH]1)c1ccc2c(c1)OCCO2,> 4 mM (inactive)
2,O=C(CC1CCCCC1)N1CCN(c2ccccn2)CC1,> 4 mM (inactive)
3,COc1cccc2c(=O)n(CC(N)=O)ccc12,> 4 mM (inactive)
4,O=C(O)c1ccc2nsnc2c1,> 4 mM (inactive)
5,CC(=O)N1CC2(C)CN(C(C)=O)CC(C)(C1)C2,> 4 mM (inactive)
6,COC(=O)[C@@H]1C(O)CC[C@H]2CN3CCc4c([nH]c5ccccc45)[C@@H]3C[C@@H]21 (stereo partly drawn),> 4 mM (inactive)
7,O=C(c1ccc(Cl)s1)N1CCOCC1,> 4 mM (inactive)
8,Cn1cc(Cl)c(C(=O)Nc2ccncc2)n1,> 4 mM (inactive)
9,COc1cccc(NC(=O)c2nc3ncccn3n2)c1,> 4 mM (inactive)
10,O=C(O)c1ccc(-n2cccn2)cc1,> 4 mM (inactive)
11,COc1cc2ccc(=O)oc2c(OC)c1OC,> 4 mM (inactive)
12,Cc1n[nH]c(=O)nc1N1CCN(c2ccccc2)CC1,> 4 mM (inactive)
13,C/C(N)=C/C(=O)N1CCCCC1,> 4 mM (inactive)
14,NCC1CN(Cc2ccccc2)CCO1 (stereo not drawn),> 4 mM (inactive)
15,CCc1c(C(=O)N2CCOCC2)csc1C,> 4 mM (inactive)
16,Nc1ncnc2nc(SCCN3CCCCC3)[nH]c12,> 4 mM (inactive)
17,CC(O)c1nc2ccccc2[nH]1 (stereo not drawn),> 4 mM (inactive)
18,CC(=O)N(c1ccccc1)C1C=CS(=O)(=O)C1 (stereo not drawn),> 4 mM (inactive)
19,O=S(=O)(Nc1cccnc1Cl)c1ccccc1,> 4 mM (inactive)
20,CS(=O)(=O)N1CCN(C(=O)c2ccccc2)C1,> 4 mM (inactive)
21,N[C@@H](CCC(=O)N[C@@H](CS)C(=O)NCC(=O)O)C(=O)O,> 4 mM (inactive)
22,Cc1cc(=O)cc(C)n1-c1ccccc1N1CCOCC1,> 4 mM (inactive)
23,Cc1nc2ccc(F)cc2cc1C(=O)NCc1ccco1,> 4 mM (inactive)
24,O=c1nc(N2CCOCC2)nc2n1CCO2,> 4 mM (inactive)
25,N#Cc1cnn(-c2ccc(Cl)cc2)c1N,> 4 mM (inactive)

row,SMILES,Kd
1,O=C1CC(C(=O)O)c2ccccc21 (stereo not drawn),> 4 mM (inactive)
2,O=c1c(O)cccc2cc(O)c(O)c(O)c12,> 4 mM (inactive)
3,O=C(c1cc(-c2ccccc2)on1)N1CCCC1,> 4 mM (inactive)
4,Cn1c(CO)nc2ccccc21,> 4 mM (inactive)
5,c1ccc(SCc2nc(-c3ccncc3)no2)cc1,> 4 mM (inactive)
6,NC(=O)C1(S(=O)(=O)c2ccccc2)CC1,> 4 mM (inactive)
7,Nc1ccc2c(c1)OCO2,> 4 mM (inactive)
8,Cn1c(O)c(C2=NC(=S)NC2=O)c2ccccc21,> 4 mM (inactive)
9,CN(C)C(=S)Nc1ccc([N+](=O)[O-])cc1,> 4 mM (inactive)
10,O=C1NC(=O)C(C2SC(=O)NC2=O)S1 (stereo not drawn),> 4 mM (inactive)
11,CCCCCCCCCCCC1=C(O)C(=O)C=C(O)C1=O,> 4 mM (inactive)
12,Cc1cc(C)nc(/N=C(/N)N2CCN(C)CC2)n1,> 4 mM (inactive)
13,CCOC(=O)c1c(C)cc(O)c(C=O)c1O,> 4 mM (inactive)
14,CCc1noc(C)c1C(=O)N1CCCC1,> 4 mM (inactive)
15,COC(=O)C1=CCCN(C)C1,> 4 mM (inactive)
16,COc1cc2c(cc1O)CC1c3c(cc(O)c(OC)c3-2)CCN1C (stereo not drawn),> 4 mM (inactive)
17,C=C1C(=O)O[C@@H]2C[C@@]3(C)CCC[C@H](C)C3=C[C@H]12,> 4 mM (inactive)
18,COc1cc2c(cc1OC)C1Cc3ccc(OC)c(OC)c3CN1CC2 (stereo not drawn),> 4 mM (inactive)
19,Cc1c(N=Cc2ccc[nH]2)c(=O)n(-c2ccccc2)n1C,> 4 mM (inactive)
20,CSc1ccc(C2NC(=O)CCC2[N+](=O)[O-])cc1 (stereo not drawn),> 4 mM (inactive)
21,S=c1ccc(N2CCCCC2)n[nH]1,> 4 mM (inactive)
22,O=c1[nH]nc(Cc2ccncc2)c2ccccc12,> 4 mM (inactive)
23,O=C(Nc1nncs1)c1c(F)c(F)c(F)c(F)c1F,> 4 mM (inactive)
24,CN(C)N1C(=O)c2ccccc2C1=O,> 4 mM (inactive)
25,CC1(C)Cc2nc3n[nH]c(N)c3cc2CO1,> 4 mM (inactive)

row,SMILES,Kd
1,Clc1ccccc1OCc1nc(-c2ccccn2)no1,> 4 mM (inactive)
2,CN(Cc1nc2ccccc2n1C)C(=O)c1cccs1,> 4 mM (inactive)
3,CN(C)S(=O)(=O)N1CCc2ccccc21,> 4 mM (inactive)
4,CC(=O)c1ccc(NC(=S)N2CCC(O)CC2)cc1,> 4 mM (inactive)
5,c1ccc(CSc2ncccn2)cc1,> 4 mM (inactive)
6,COc1ccc2c(c1)OC[C@@H](Cc1ccc(OC)c(OC)c1)[C@@H]2O,> 4 mM (inactive)
7,COc1cccc(Oc2ccc(N)cc2)c1,> 4 mM (inactive)
8,NCCc1ccc(S(N)(=O)=O)cc1,> 4 mM (inactive)
9,CN1CCN(C2CCN(Cc3ccccc3)CC2)CC1,> 4 mM (inactive)
10,NC(=O)COc1ccccc1O,> 4 mM (inactive)
11,CC(=O)Nc1ccc2c(c1)C(=O)N(C1CCCCC1)C2=O,> 4 mM (inactive)
12,S=C(c1ccc2c(c1)OCO2)N1CCCC1,> 4 mM (inactive)
13,CC(=O)Nc1ccccc1OCC(N)=O,> 4 mM (inactive)
14,CCc1c(C)[nH]c(=S)c(C(N)=O)c1C,> 4 mM (inactive)
15,CC(=O)NC(NC(C)=O)c1ccccc1,> 4 mM (inactive)
16,OCCCc1nc2ccccc2[nH]1,> 4 mM (inactive)
17,CC(=O)Nc1cccc(NC(=O)c2cccnc2)c1,> 4 mM (inactive)
18,CC(=O)Nc1ccn(Cc2c(F)cccc2Cl)n1,> 4 mM (inactive)
19,Cn1c(=O)n(C)c2cc(C(N)=O)ccc21,> 4 mM (inactive)
20,Cc1noc(C)c1C(=O)Nc1cccnc1,> 4 mM (inactive)
21,OCc1nc2ccccc2s1,> 4 mM (inactive)
22,CCC[C@@H]1CCCCN1,> 4 mM (inactive)
23,C=C[C@H]1CN2CC[C@H]1C[C@H]2[C@H](O)c1ccnc2ccccc12,> 4 mM (inactive)
24,COC(=O)c1ccc(NC(=O)CC2NCCNC2=O)cc1 (stereo not drawn),> 4 mM (inactive)
25,CN1CCC(NC(=O)c2cccnc2)CC1,> 4 mM (inactive)

row,SMILES,Kd
1,CC[C@@]1(O)C[C@H](O[C@H]2C[C@H](N(C)C)[C@H](O)[C@H](C)O2)c2c(cc3c(c2O)C(=O)c2c(O)cccc2C3=O)[C@H]1C(=O)OC,> 4 mM (inactive)
2,COc1ccccc1N1C(=N)SCC1=O,> 4 mM (inactive)
3,O=C1Nc2ccccc2C1C1(O)C(=O)Nc2ccc(F)cc21 (stereo not drawn),> 4 mM (inactive)
4,CN(C)S(=O)(=O)NCc1ccc2c(c1)OCO2,> 4 mM (inactive)
5,CCOc1cc(S(=O)(=O)n2nc(C)cc2C)ccc1F,> 4 mM (inactive)
6,NC(=O)c1cccc(N2C(=O)C=CC2=O)c1,> 4 mM (inactive)
7,Cn1cnc2c(=O)[nH]cc([N+](=O)[O-])c21,> 4 mM (inactive)
8,Cc1nn(C)c(Cl)c1C(O)c1c(C)nn(C)c1Cl,> 4 mM (inactive)
9,CSc1nc(-c2ccco2)nn1S(C)(=O)=O,> 4 mM (inactive)
10,Cc1nn2c(nc1=O)SCC(c1ccccc1)=N2,> 4 mM (inactive)
11,COc1cc([C@H]2Oc3cc([C@H]4Oc5cc(O)cc(O)c5C(=O)[C@@H]4O)ccc3O[C@@H]2CO)ccc1O,> 4 mM (inactive)
12,NS(=O)(=O)c1ccc2c3c(cccc13)C(=O)N2,> 4 mM (inactive)
13,COC(=O)Cc1cccc(OC)c1,> 4 mM (inactive)
14,O=C(Nc1ccc2c(c1)OCO2)c1c(F)cccc1F,> 4 mM (inactive)
15,Nc1cccc(OC(F)(F)F)c1,> 4 mM (inactive)
16,CC(C)c1ccc2c(c1O)CC[C@H]1C3=C(CC[C@]21C)C(=O)OC3,> 4 mM (inactive)
17,Cc1nc(-c2ccccc2)ncc1CO,> 4 mM (inactive)
18,CCN=Cc1c(O)n(-c2ccccc2C)c(=O)[nH]c1=O,> 4 mM (inactive)
19,CC1(C)NC(=O)N(CCOc2ccc3c(c2)CCC3)C1=O,> 4 mM (inactive)
20,O=c1ccc2ccccc2o1,> 4 mM (inactive)
21,NC(=O)CN1C(=O)c2cccc3cccc1c23,> 4 mM (inactive)
22,Cc1cc(O)c(C=O)c(O)c1C(=O)O,> 4 mM (inactive)
23,NC(=O)c1cn(-c2ccccc2)nc1-c1cccnc1,> 4 mM (inactive)
24,Nc1nsc(-c2ccccc2)n1,> 4 mM (inactive)
25,NS(=O)(=O)c1ccc(NC(=O)/C=C\C(=O)O)cc1,> 4 mM (inactive)

row,SMILES,Kd
1,Nc1ccc(C2SCCS2)cc1,> 4 mM (inactive)
2,O=C(O)C1Cc2c([nH]c3ccccc23)CN1 (stereo not drawn),> 4 mM (inactive)
3,Nc1ccc(F)cc1F,> 4 mM (inactive)
4,CN(C)c1ccc(CNn2cnnc2)cc1,> 4 mM (inactive)
5,COc1ccc(C2NC(C(=O)O)CS2)cc1 (stereo not drawn),> 4 mM (inactive)
6,CCCN1CCC(N2CCC(O)CC2)CC1,> 4 mM (inactive)
7,CC(=O)Oc1ccc2c(c1)c(C(C)=O)c(C)n2C,> 4 mM (inactive)
8,COc1cc(C)c2c(c1C=O)Oc1c(c(C)c(O)c3c1C(O)OC3=O)OC2=O (stereo not drawn),> 4 mM (inactive)
9,COC1C=CC23c4cc5c(cc4CN(CC2O)[C@@H]3C1)OCO5 (stereo partly drawn),> 4 mM (inactive)
10,CCOC(=O)c1c(C)nc2sccn12,> 4 mM (inactive)
11,O=c1nc(C(F)(F)F)nc2ccccn12,> 4 mM (inactive)
12,C=CCNC(=O)c1ccc(Cl)cc1Cl,> 4 mM (inactive)
13,C/C1=C/CC(C)(C)/C=C/C/C(C)=C/CC1,> 4 mM (inactive)
14,CC(=O)N=c1cccc(NC(C)=O)n1O,> 4 mM (inactive)
15,Cn1cnc([N+](=O)[O-])c1Sc1ncnc2nc[nH]c12,> 4 mM (inactive)
16,Nc1ccc2c(c1)N1CCN=C1S2,> 4 mM (inactive)
17,O=C(c1ccc(Cl)c(F)c1F)N1CCCC1,> 4 mM (inactive)
18,OC1CC2CCC1C2 (stereo not drawn),> 4 mM (inactive)
19,O=C1CCC(=O)N1CN1CCOCC1,> 4 mM (inactive)
20,O=C(NC1CCS(=O)(=O)C1)c1cccs1 (stereo not drawn),> 4 mM (inactive)
21,CC1=CC2C(CC1=O)C(C)=CCC2C(C)C (stereo not drawn),> 4 mM (inactive)
22,CC(C)=CCc1c(O)cc(C)oc1=O,> 4 mM (inactive)
23,C=C1CCC2C(CC2(C)C)C(=O)CCC1O (stereo not drawn),> 4 mM (inactive)
